The text below walks through data of patent US8664217B2, “Benzodiazepine compound and pharmaceutical composition” (Otsuka Pharmaceutical Co., Ltd., priority 2008, dated 2014).

Molecules are shown by their SMILES. Where a name gives a salt, the structure may show the parent alone. Read-outs that look alike come from different tables or passages of the source.

The target in the experiment is T1, human GIRK1/4 channels (Homo sapiens, UniProt P48544+P48549).
T1 construct: Full-length human GIRK1 cDNA was cloned from HuH cell- and HeLa cell-derived cDNA libraries; Full-length GIRK4 cDNA was amplified from a human heart cDNA library; expressed in transfected cells; host or cells: FLP-IN-CHO cells (Invitrogen)
T1 sequence (P48549 1-501): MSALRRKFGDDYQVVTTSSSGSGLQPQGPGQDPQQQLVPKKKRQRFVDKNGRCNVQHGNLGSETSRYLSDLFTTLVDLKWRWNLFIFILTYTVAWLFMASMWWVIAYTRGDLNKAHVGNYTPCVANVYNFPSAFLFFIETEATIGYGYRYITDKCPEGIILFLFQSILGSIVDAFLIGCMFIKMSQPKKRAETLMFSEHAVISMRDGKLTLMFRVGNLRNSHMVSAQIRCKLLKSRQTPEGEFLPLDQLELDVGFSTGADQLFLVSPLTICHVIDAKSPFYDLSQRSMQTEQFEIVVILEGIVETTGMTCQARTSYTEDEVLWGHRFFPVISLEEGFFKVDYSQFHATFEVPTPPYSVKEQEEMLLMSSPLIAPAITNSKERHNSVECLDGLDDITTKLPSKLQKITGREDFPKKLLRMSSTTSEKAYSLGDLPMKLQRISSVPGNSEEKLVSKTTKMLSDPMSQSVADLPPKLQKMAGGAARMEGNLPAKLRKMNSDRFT
T1 sequence (P48544 1-419): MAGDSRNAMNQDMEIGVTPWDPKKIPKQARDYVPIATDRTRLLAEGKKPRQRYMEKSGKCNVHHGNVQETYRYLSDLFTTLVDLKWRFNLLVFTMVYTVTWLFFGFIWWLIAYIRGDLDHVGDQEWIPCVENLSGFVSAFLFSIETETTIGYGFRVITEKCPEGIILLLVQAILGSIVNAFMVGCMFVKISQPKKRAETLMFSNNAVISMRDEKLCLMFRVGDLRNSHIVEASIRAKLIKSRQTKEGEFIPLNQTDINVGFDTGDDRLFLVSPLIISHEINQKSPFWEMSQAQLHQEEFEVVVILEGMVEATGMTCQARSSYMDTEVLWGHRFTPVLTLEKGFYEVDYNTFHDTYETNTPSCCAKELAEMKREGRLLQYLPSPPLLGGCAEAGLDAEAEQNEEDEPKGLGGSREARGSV
Briefly: Measurement of human GIRK1/4 channel current by whole-cell patch clamp method (human GIRK1/4-expressing CHO cell line). The format is cell-based. How it is done:
(2) Production of CHO Cell Line Expressing Human GIRK1/4
CHO cell lines stably expressing human GIRK1/4 channels were prepared in the following manner.
Full-length human GIRK1 cDNA was cloned from HuH cell- and HeLa cell-derived cDNA libraries. Full-length GIRK4 cDNA was amplified from a human heart cDNA library (produced by Clontech Laboratories, Inc.) by PCR using synthetic primers shown in Table 1, and cloned into the Eco-RI restriction enzyme site of pCR-Blunt (produced by Invitrogen Corporation) or into the HincII site of pUC118 (produced by Takara Bio, Inc.).
The obtained human GIRK1 and GIRK4 cDNA sequences correspond to known sequences (NCBI database: GIRK1 (NM_002239) and GIRK4 (NM_000890) respectively). The obtained GIRK1 and GIRK4 cDNA sequences were cloned into the Eco-RI restriction enzyme site of pCR-Blunt (available from Invitrogen Corporation) or into the HincII site of pUC118 (available from Takara Bio, Inc.). A GIRK4 expression vector was constructed by insertion into the BamHI-XhoI site of pcDNA5/FRT. A GIRK1 expression vector was constructed by insertion into the KpnI-XhoI site of pcDNA3.1(+) or pCAG_neo. FLP-IN-CHO cells (produced by Invitrogen Corporation) were transfected with human GIRK1 and GIRK4 expression vectors by using Lipofectamine 2000 (produced by Invitrogen Corporation) according to the protocol enclosed with the reagent or using an electronic induction method (“Nucleofector Kit-T”, produced by Amaxa). First, the cells transfected with the GIRK4 expression vector were cultured in a 10% serum-containing F12 medium (produced by Sigma) supplemented with 600 μg/ml of hygromycin in an incubator with 5% carbon dioxide at 37° C. Then the cells expressing GIRK4 were transfected with the GIRK1 expression vector and were cultured in 10% serum-containing F12 medium supplemented with 350 μg/ml of G418 and 600 μg/ml of hygromycin in an incubator with 5% carbon dioxide at 37° C. to select GIRK1/4 expressing cell lines. Cell populations whose growth was observed after about 2 weeks were isolated using cloning rings, and the obtained single colonies were proliferated. RNA was extracted from single colonies, and single-stranded cDNA was synthesized by a cDNA synthesis kit (produced by Invitrogen Corporation), and the amount of expression was quantified at the mRNA level by real-time PCR (Applied Biosystems, Ltd.). Finally, the expressed current was analyzed by patch clamp method described below. The cell lines expressing a current of 500 pA or more per cell were selected as channel-expressing cell lines for activity measurement by patch clamping method.
(4) Measurement of Ion Channel Current by Patch Clamp Method (Human GIRK1/4-Expressing CHO-K1 Cell Line)
An experiment was carried out using a patch clamp setup at room temperature (20 to 26° C.). A perfusion chamber having a diameter of 20 mm (flow rate: about 5 ml/min) was mounted on the stage of a phase-contrast inverted microscope (produced by Nikon Corporation) placed on a vibration isolation table. A poly-L-lysine (produced by Sigma)-coated coverslip (diameter: 15 mm, produced by Matsunami Glass Ind., Ltd.) on which human GIRK1/4-expressing cells were cultured was placed in the perfusion chamber.
Hyperpolarizing stimulation pulses were applied and ionic current was recorded using a patch clamp amplifier (EPC-7 or EPC-7 PLUS, manufactured by HEKA) and a personal computer (manufactured by IBM Corp.) in which software for data acquisition and analysis of ion channel current (PULSE 8.77, manufactured by HEKA) was installed. The current was measured in the whole-cell configuration of the patch-clamp technique. The tip (resistance: 2 to 4 MΩ) of a borosilicate glass pipette (produced by Sutter Instrument Co.) was gently placed on the cell membrane by using a three-dimensional mechanical micromanipulator (produced by Shoshin EM Corporation). […] Subsequently, stronger suction was applied to break the cell membrane. […]

Setting [1] is: whole-cell patch clamp, human GIRK1/4-expressing CHO cells, step end current at −120 mV, test compound 0.1, 1, 10 μM, read-out: GIRK¼ IC50.

On to `CCN1C(=O)C(C)(C)C(=O)N(C)c2cc(OCCCN(CCn3ccc4occc4c3=O)Cc3cnccc3C)ccc21` [Example 590, 1-ethyl-3,3,5-trimethyl-7-(3-{(4-methylpyridin-3-ylmethyl)-[2-(4-oxo-4H-furo[3,2-c]pyridin-5-yl)ethyl]-amino}propoxy)-1,5-dihydrobenzo[b][1,4]diazepine-2,4-dione], for which the IC50 under setting [1] came out at 2400 nM. The same measure, in the same setting: the same measure for `CCN1C(=O)C(C)(C)C(=O)N(C)c2cc(OCCCN(CCn3c(=O)ccc4ccccc43)Cc3ccncc3)ccc21` [Example 63, 1-ethyl-3,3,5-trimethyl-7-(3-{[2-(2-oxo-2H-quinolin-1-yl)ethyl]pyridin-4-ylmethylamino}propoxy)-1,5-dihydrobenzo[b][1,4]diazepine-2,4-dione]: 920 nM; for `CCN1C(=O)C(C)(C)C(=O)N(C)c2cc(OCCCN(CCc3cccnc3)C(=O)c3ccccc3)ccc21` [Example 633, N-[3-(1-ethyl-3,3,5-trimethyl-2,4-dioxo-2,3,4,5-tetrahydro-1H-benzo[b][1,4]diazepin-7-yloxy)propyl]-N-(2-pyridin-3-ylethyl)benzamide hydrochloride]: 8400 nM. `CCN1C(=O)C(C)(C)C(=O)N(C)c2cc(OCCCN(CCc3cccnc3)S(=O)(=O)c3ccccc3)ccc21` [Example 628, N-[3-(1-ethyl-3,3,5-trimethyl-2,4-dioxo-2,3,4,5-tetrahydro-1H-benzo[b][1,4]diazepin-7-yloxy)propyl]-N-(2-pyridin-3-ylethyl)benzenesulfonamide hydrochloride]: the IC50 under setting [1] was 2500 nM. In the case of `CN1C(=O)C(C)(C)C(=O)N(C)c2cc(OCCCN(CCc3cccnc3)Cc3ccncc3)ccc21` [Example 19, 1,3,3,5-tetramethyl-7-{3-[(2-pyridin-3-ylethyl)pyridin-4-ylmethylamino]propoxy}-1,5-dihydrobenzo[b][1,4]diazepine-2,4-dione trihydrochloride], the IC50 under setting [1] was found to be 1400 nM.

With `CCN1C(=O)C(C)(C)C(=O)N(C)c2cc(OCCCN(CCn3ccc4sccc4c3=O)Cc3cccnc3C)ccc21` [Example 595, 1-ethyl-3,3,5-trimethyl-7-(3-{(2-methylpyridin-3-ylmethyl)-[2-(4-oxo-4H-thieno[3,2-c]pyridin-5-yl)ethyl]-amino}propoxy)-1,5-dihydrobenzo[b][1,4]diazepine-2,4-dione], the IC50 under setting [1] is 790 nM. `CCN1C(=O)C(C)(C)C(=O)N(C)c2cc(OCCCN(CCn3ccc4oc(C)cc4c3=O)Cc3ccncc3)ccc21` [Example 464, 1-ethyl-3,3,5-trimethyl-7-(3-{[2-(2-methyl-4-oxo-4H-furo[3,2-c]pyridin-5-yl)ethyl]pyridin-4-ylmethylamino}propoxy)-1,5-dihydrobenzo[b][1,4]diazepine-2,4-dione dihydrochloride]: the half-maximal inhibitory concentration (IC50) under setting [1] stood at 3200 nM. Turning to `CCCN1C(=O)C(C)(C)C(=O)N(C)c2cc(OCCCN(CCc3cccnc3)Cc3ccncc3)ccc21` [Example 10, 3,3,5-trimethyl-1-propyl-7-{3-[(2-pyridin-3-ylethyl)pyridin-4-ylmethylamino]propoxy}-1,5-dihydrobenzo[b][1,4]diazepine-2,4-dione trihydrochloride], the IC50 under setting [1] stood at 3600 nM.

On to `CCN1C(=O)C(C)(C)C(=O)N(C)c2cc(OCCCN(CCn3ccc4sccc4c3=O)Cc3cccnc3)ccc21` [Example 568, 1-ethyl-3,3,5-trimethyl-7-(3-{[2-(4-oxo-4H-thieno[3,2-c]pyridin-5-yl)ethyl]pyridin-3-ylmethylamino}-propoxy)-1,5-dihydrobenzo[b][1,4]diazepine-2,4-dione], for which, under setting [1], the concentration for half-maximal inhibition (IC50) came out at 50 nM. For `CCN1C(=O)C(C)(C)C(=O)N(C)c2cc(OCCCN(CCn3ccc4ccccc4c3=O)Cc3ccc(C#N)cc3)ccc21` [Example 85], the 50% inhibitory concentration (IC50) under setting [1] was determined as 150 nM. For the compound `CCN1C(=O)C(C)(C)C(=O)N(C)c2cc(OCCCN(CCc3cccnc3)Cc3cccc(C#N)c3)ccc21` [Example 229], the IC50 under setting [1] worked out at 690 nM. In turn, `CCN1C(=O)C(C)(C)C(=O)N(C)c2cc(OCCCN(CCn3ccc4ccccc4c3=O)Cc3ccsc3)ccc21` [Example 125] displayed an IC50 of 91 nM. As for `CCN1C(=O)C(C)(C)C(=O)N(C)c2cc(OCCCN(CCn3ccc4ccsc4c3=O)Cc3ccncc3)ccc21` [Example 68, 1-ethyl-3,3,5-trimethyl-7-(3-{[2-(7-oxo-7H-thieno[2,3-c]pyridin-6-yl)ethyl]pyridin-4-ylmethylamino}propoxy)-1,5-dihydrobenzo[b][1,4]diazepine-2,4-dione], the IC50 under setting [1] came to 5100 nM. Regarding `CCN1C(=O)C(C)(C)C(=O)N(C)c2cc(OCCCN(CCn3ccc4ccccc4c3=O)Cc3ccncc3)ccc21` [Example 23, 1-ethyl-3,3,5-trimethyl-7-(3-{[2-(1-oxo-1H-isoquinolin-2-yl)ethyl]pyridin-4-ylmethylamino}propoxy)-1,5-dihydrobenzo[b][1,4]diazepine-2,4-dione dihydrochloride], under setting [1], the IC50 was found to be 250 nM. On the same count and under the same terms, the same measure for `CCN1C(=O)C(C)(C)C(=O)N(C)c2cc(OCCCN(CCn3ccc4ccccc4c3=O)S(=O)(=O)c3ccccc3)ccc21` [Example 634, N-[3-(1-ethyl-3,3,5-trimethyl-2,4-dioxo-2,3,4,5-tetrahydro-1H-benzo[b][1,4]diazepin-7-yloxy)propyl]-N-[2-(1-oxo-1H-isoquinolin-2-yl)ethyl]benzenesulfonamide]: 490 nM; for `CCN1C(=O)C(C)(C)C(=O)N(C)c2cc(OCCCN(CCn3ccc4ccoc4c3=O)Cc3ccc(C#N)cc3)ccc21` [Example 380]: 490 nM; for `CCN1C(=O)C(C)(C)C(=O)N(C)c2cc(OCCCN(CCc3cccnc3)Cc3ccncc3C)ccc21` [Example 54, 1-ethyl-3,3,5-trimethyl-7-{3-[(3-methylpyridin-4-ylmethyl)-(2-pyridin-3-ylethyl)amino]propoxy}-1,5-dihydrobenzo[b][1,4]diazepine-2,4-dione trihydrochloride]: 970 nM.
